From ChEMBL document CHEMBL1129721, “Application of the Heck reaction in the synthesis of truncated naphthoic acid retinoids” (1996)
Calls of active or inactive are those of the source. No cut-off for these calls is given here.

Legend:
Mus musculus = species: Mus musculus; experiment: Concentration that induces 30% utriculi reduction in rhino mouse.; type: functional
[1] = biological target: T1, Retinoic acid receptor alpha (Homo sapiens) (UniProt P10276); experiment: Transcriptional activation of retinoic acid RAR-alpha receptor; Not active
T1 sequence (whole entry): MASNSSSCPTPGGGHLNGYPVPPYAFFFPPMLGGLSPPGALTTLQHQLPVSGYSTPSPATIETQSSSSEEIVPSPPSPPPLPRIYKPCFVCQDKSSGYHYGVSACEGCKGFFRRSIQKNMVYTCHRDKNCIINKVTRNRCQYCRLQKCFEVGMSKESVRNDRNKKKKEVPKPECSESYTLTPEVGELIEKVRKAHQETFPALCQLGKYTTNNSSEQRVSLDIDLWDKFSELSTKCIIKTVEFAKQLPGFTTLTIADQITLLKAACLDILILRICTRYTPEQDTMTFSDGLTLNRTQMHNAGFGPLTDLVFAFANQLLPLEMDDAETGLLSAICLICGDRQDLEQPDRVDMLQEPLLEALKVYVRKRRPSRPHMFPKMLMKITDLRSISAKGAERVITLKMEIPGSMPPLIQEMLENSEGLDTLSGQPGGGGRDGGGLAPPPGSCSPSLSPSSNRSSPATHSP

[2] = biological target: T2, Retinoic acid receptor beta (Homo sapiens) (UniProt P10826); experiment: Transcriptional activation of retinoic acid RAR-beta receptor; Not active
T2 sequence (whole entry): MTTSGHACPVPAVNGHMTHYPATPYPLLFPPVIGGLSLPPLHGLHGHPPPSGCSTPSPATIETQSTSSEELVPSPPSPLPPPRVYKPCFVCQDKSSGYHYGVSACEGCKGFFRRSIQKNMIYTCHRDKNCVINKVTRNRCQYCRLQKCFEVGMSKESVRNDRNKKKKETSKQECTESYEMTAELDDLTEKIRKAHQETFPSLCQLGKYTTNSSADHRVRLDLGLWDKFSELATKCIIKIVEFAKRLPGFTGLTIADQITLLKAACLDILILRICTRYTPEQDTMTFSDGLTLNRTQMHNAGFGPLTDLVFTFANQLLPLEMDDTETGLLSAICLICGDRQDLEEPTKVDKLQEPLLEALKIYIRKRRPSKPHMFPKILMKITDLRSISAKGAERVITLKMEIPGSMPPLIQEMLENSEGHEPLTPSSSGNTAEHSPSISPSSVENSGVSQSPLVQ

[3] = biological target: T3, Retinoic acid receptor gamma (Homo sapiens) (UniProt P13631); experiment: Transcriptional activation of retinoic acid RAR-gamma receptor; Not active
T3 sequence (whole entry): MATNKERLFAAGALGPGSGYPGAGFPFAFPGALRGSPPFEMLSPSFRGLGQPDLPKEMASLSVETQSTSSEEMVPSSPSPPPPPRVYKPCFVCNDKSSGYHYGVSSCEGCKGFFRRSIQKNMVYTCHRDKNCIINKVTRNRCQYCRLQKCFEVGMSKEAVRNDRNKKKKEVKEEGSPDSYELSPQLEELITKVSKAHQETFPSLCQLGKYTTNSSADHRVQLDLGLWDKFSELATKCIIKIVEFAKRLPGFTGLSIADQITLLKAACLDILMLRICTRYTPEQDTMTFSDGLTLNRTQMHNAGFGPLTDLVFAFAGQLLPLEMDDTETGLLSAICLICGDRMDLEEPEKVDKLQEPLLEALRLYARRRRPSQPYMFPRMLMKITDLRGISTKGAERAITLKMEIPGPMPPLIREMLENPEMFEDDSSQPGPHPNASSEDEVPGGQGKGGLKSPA

SMILES	ED30 (Mus musculus)	EC50 ratio [1]	EC50 ratio [2]	EC50 ratio [3]
CC1(C)CCC(C)(C)c2cc(C(O)/C=C/c3ccc(C(=O)O)cc3)ccc21 (stereo unspecified)	65 µM			
CC1(C)CCC(C)(C)c2cc(C(=O)c3cccc(/C=C/C(=O)O)c3)ccc21		inactive	inactive	
C/C(=C\c1ccc(C(=O)c2ccc3c(c2)C(C)(C)CCC3(C)C)cc1)C(=O)O	92 µM			
CC1(C)CCC(C)(C)c2cc(C(=O)/C=C/c3ccc(C(=O)O)cc3)ccc21	3.4 µM			
CC1(C)CCC(C)(C)c2cc(C(=O)c3ccc(/C=C/C(=O)O)cc3)ccc21	54 µM			
Cc1cc(C(=O)c2ccc3c(c2)C(C)(C)CCC3(C)C)ccc1/C=C/C(=O)O	184 µM	inactive		
CC1(C)CCC(C)(C)c2cc(C(O)c3ccc(/C=C/C(=O)O)cc3)ccc21 (stereo unspecified)	1740 µM	inactive	inactive	inactive
CC1(C)CCC(C)(C)c2cc(C(O)c3cccc(/C=C/C(=O)O)c3)ccc21 (stereo unspecified)		inactive	inactive	inactive
CC1(C)CCC(C)(C)c2cc(C(=O)c3ccc(C#CC(=O)O)cc3)ccc21	1000 µM	inactive		
CC1(C)CCC(C)(C)c2cc(C(=O)c3ccc(/C=C\C(=O)O)cc3)ccc21		inactive		
C/C(=C\C(=O)O)c1ccc(C(=O)c2ccc3c(c2)C(C)(C)CCC3(C)C)cc1		inactive		
CC1(C)CCC(C)(C)c2cc(C(=O)c3ccc4cc(C(=O)O)ccc4c3)ccc21	29 µM			
CC1(C)CCC(C)(C)c2cc(C(O)c3ccc4cc(C(=O)O)ccc4c3)ccc21 (stereo unspecified)	223 µM			
